Data: patent publication US20250223366A1, “MONOCLONAL ANTIBODIES AND BISPECIFIC ANTIBODY AGAINST C-MET” (BIOTHEUS INC., priority 2022, published 2025)

Key:
[1] = system: H1975-HGF human lung cancer cells; experiment: Experimental Model 5: H1975-HGF tumor-bearing model, combination with Osimertinib; format: in vivo, CB-17 SCID mice; conditions: antibody Day 16 and Day 18: 3 mg/kg, Osimertinib Days 16 to 22: 3 mg/kg/day, last measured 28 days after inoculation
From the text: In this experiment, the in vivo efficacy of the bispecific antibody of the present application in combination with an small molecule EGFR inhibitor (e.g., Osimertinib) was detected. Using the lentiviral transfection method, the cDNA encoding human HGF (hepatocyte growth factor) (the sequence was from UniProtKB P14210) was constructed on the pLVX-neu vector by General Biol, and the plasmid was transfected into H1975 cells to construct a cell line ([…]) with stable expression of HGF. In this experiment, CB-17 SCID mice were subcutaneously inoculated with H1975-HGF human lung cancer cells to establish a tumor-bearing model and determine the anti-tumor effect of the anti-EGFRxc-Met bispecific antibody. The model construction process was the same as that of Experimental Model 2. The mice were divided into groups according to the grouping and dosing scheme in Table 10 and the corresponding doses of antibodies were injected.
The tumor volume and body weight of mice were measured 2 to 3 times a week. The body weight and tumor volume of mice were measured for the last time 28 days after the tumor cell inoculation, and then the mice were euthanized.

A375/H1975/HCC827 cells = experiment: ADCC induction, CD16a-NFAT-Luc Jurkat reporter gene cells; format: cell-based, human; conditions: A375, H1975, HCC827 target cells, CD16a-NFAT-Luc Jurkat effector cells, 6 h, FIG. 9
From the text: A375 cells were human malignant melanoma cells and purchased from Addexbio, which were capable of expressing EGFR and c-Met receptors. H1975 cells were human lung adenocarcinoma cells and purchased from Addexbio, which were capable of highly expressing EGFR and c-Met receptors. HCC827 cells were human non-small cell lung cancer cells and purchased from the Cell Bank of the Chinese Academy of Sciences, which were capable of highly expressing EGFR and c-Met receptors. […]

[2] = system: H292 human lung cancer tumor cells; experiment: Experimental Model 4: H292 tumor-bearing model, comparison with Rybrevant; format: in vivo, CB-17 SCID mice; conditions: H292, single dose Day 14: 10 mg/kg; last measured 27 days after inoculation
From the text: In this experiment, CB-17 SCID mice were subcutaneously inoculated with H292 human lung cancer tumor cells to establish a tumor-bearing model, and the anti-EGFRxc-Met bispecific antibody was compared with the commercially available EGFRxc-Met bispecific antibody Rybrevant (purchased from Johnson & Johnson, batch number: LHS3G02) (this antibody had been published at various oncology conferences and was also known as JNJ-6372) in terms of anti-tumor effect. The mouse model establishment process was the same as that of Experimental Model 1. The groups were divided according to the grouping and dosing scheme in Table 9 and the corresponding doses of antibodies were injected.
The tumor volume and body weight of the mice were measured 2 to 3 times a week. The weight and tumor volume of the mice were measured for the last time 27 days after the inoculation of tumor cells, and the mice were euthanized.

HepG2 cells = experiment: Blocking HGF-induced migration of HepG2 cells; format: cell-based, human; conditions: HGF in lower chamber, 3 days, FIG. 6
From the text: HepG2 cells were human liver cancer cells and purchased from ATCC, which were capable of expressing EGFR and c-Met receptors. When HGF was placed in the lower chamber culture medium, it would induce HepG2 cells in the upper chamber to migrate to the lower chamber through the filter membrane. The specific experimental method was as follows: HepG2 cells were expanded to an appropriate density, the cells were digested and detached from the cell culture flask, resuspended to 1×10^6 cells/ml, and added to the upper chamber of the 24-well cell migration plate (purchased from Corning) at 100 μL per well for later use. The bispecific antibody was diluted to 200 nM with MEM, added to the upper chamber of the 24-well cell migration plate at 100 μL per well, and incubated at 25° C. for 60 min. h.HGF (purchased from R&D) was diluted to 50 ng/mL with MEM, added to the lower chamber of the cell migration plate at 500 μL/well, and cultured for 3 days at 37° C. and 5% carbon dioxide. The non-migrated cells on the upper chamber membrane were gently wiped with cotton swabs, the cells that migrated to the lower chamber membrane were lysed with Cell titer glo (purchased from Promega), and the chemiluminescent signal was collected with an microplate plate reader.

[3] = molecular target: T1, EGFR which expressed on H292 cells (Homo sapiens, UniProt P00533); experiment: Blocking EGF-EGFR interaction on H292 cells (flow cytometry, Biotin-h.EGF); format: cell-based; conditions: negative controls, FIG. 3
T1 construct: H292 cells, which were human non-small cell lung cancer cells purchased from Procell, were capable of expressing EGFR and c-Met receptors; host or cells: H292 cells
Experimental: H292 cells, which were human non-small cell lung cancer cells purchased from Procell, were capable of expressing EGFR and c-Met receptors. H292 cells were expanded to a suitable density, digested and detached from the cell culture flask, resuspended to 1×10^6 cells/ml, added to a 96-well flow plate, 100 μL per well, and centrifuged for later use. The antibody to be tested was subjected to 3-fold dilution with PBS, starting from 200 nM, and the diluted sample was added to the 96-well flow plate with cells, 100 μL/well, and incubated at 25° C. for 60 min. Biotin-h.EGF was diluted to 100 nM with PBS, added to the 96-well flow plate with cells, 100 μL/well, and incubated at 25° C. for 60 min. then washed twice with PBS. Streptavidin-FITC (purchased from Jackson) was diluted 100 times with PBS and added to the plate, 100 µL/well, incubated at 4° C. for 30 min, and washed twice with PBS. 100 μL/well of PBS was added to resuspend the cells, then the cells were detected on a CytoFlex (Beckman) flow cytometer, and the corresponding MFI was calculated.

Question: How did the TGI [1] turn out when `C=CC(=O)Nc1cc(Nc2nccc(-c3cn(C)c4ccccc34)n2)c(OC)cc1N(C)CCN(C)C` [Osimertinib] was run?
Answer: 38.9%

Question: For “Amivantamab analog: control anti-EGFRxcMet bispecific antibody with anti-cMet arm of WO2011/110642A2, obtained in normal host cells [reference compound]”, which ADCC effect (A375/H1975/HCC827 cells) is on record?
Answer: induced ADCC effects

Question: What does the source list for “Rybrevant: commercially available EGFRxc-Met bispecific antibody, purchased from Johnson & Johnson, batch number LHS3G02 [reference compound]”?
Answer: TGI [1]: 44.1%; TGI [2]: 67.9%

Question: For “anti-EGFR single-arm antibody: anti-EGFR single-arm antibody prepared based on the control antibody Amivantamab; heavy chain SEQ ID NO: 42, light chain SEQ ID NO: 4 [reference compound]”, which “blocking of HGF-induced migration of HepG2 cells” value (HepG2 cells) is on record?
Answer: could not block

Question: Which “blocking interaction between EGF and EGFR” value [3] does the source give for “anti-MET single-arm antibody: anti-c-Met single-arm molecule constructed based on the control molecule Amivantamab; heavy chain SEQ ID NO: 43, light chain SEQ ID NO: 8 [reference compound]” here?
Answer: could not block
